The results in this text go back to patent US5583222A, “Azepanes and their ring homologues having protein kinase inhibiting activity” (Hoffmann-La Roche Inc., priority 1994, dated 1996).

Where a name gives a salt, the structure may show the parent alone. A value given as a limit tells only on which side of the number the result lay.

In test [1] the test system is T-lymphocyte. The experiment in a line: Inhibition of T-lymphocyte proliferation. The test is classed as cell-based. The conditions noted are these: human mononuclear cells, PHA 1 μg/ml, [3H]thymidine, 3rd and 4th day, read-out: Test Procedure D: IC50, inhibition of T-lymphocyte proliferation. The procedure:
D: Inhibition of T-lymphocyte proliferation: Human mononuclear cells are isolated from venous blood of a healthy donor and a suspension of 5×10^5 cells/ml in RPMI 1640 medium, which contains 10% FCS, is prepared. The cells are stimulated with 1 μg/ml of T-cell-specific mitogen phytohaemagglutinin (PHA). 200 μl aliquots of cell suspension are treated in microtitre plates with the test substances in serial dilutions in the concentration range 0.03-10 μM. The cell proliferation is measured on the 3rd and 4th day by incubation with 1 μCi of [^3 H]thymidine during the last 6 hours of the respective day. The radioactivity taken up is measured with a liquid scintillation counter.

Test [2] has as its system Primary keratinocytes. The experiment in a line: Inhibition of keratinocyte proliferation b) Primary keratinocytes. The format is cell-based. To be noted: primary keratinocytes from human foreskin, 48 hours, [3H]thymidine incorporation, read-out: Test Procedure E b: IC50, inhibition of keratinocyte proliferation. The procedure: (§1) E Inhibition of keratinocyte proliferation: HaCaT-cell culture is effected in medium DMEM/F12 (mixture ratio 3/1) which contains serum (FCS, 5%), epidermal growth factor (EGF), hydrocortisone, cholera toxin, insulin, L-glutamine and penicillin/streptomycin. 5000 cells in 0.2 ml of medium are used per well in microtitre plates. The test substances are diluted in dimethyl sulphoxide/(DMSO)/medium and used in the concentration range 0.01-10 μM at the start of the culture. The cells are then incubated at 37° C. for 48 hours; radioactive [^3 H]thymidine is added during the last 6 hours. After disrupting the cells with trypsin incorporated activity is measured in a scintillation counter. The inhibitory activity of the test substance is given as the micromolar concentration which is required to reduce the thymidine incorporation by 50% (IC50 [μM]). b) Primary keratinocytes: Keratinocytes, isolated from human foreskin, are used in the primary culture up to passage 7. The culture and test conditions are identical with those of the HaCaT-cells with the exception of the use of 10000 cells per well.
Background: Dividing cells build labelled thymidine or BrdU into new DNA.

In test [3] the target is cAMP-dependent protein kinase (PKA). The experiment in a line: Inhibition of cAMP-dependent protein kinase (PKA). The format is biochemical. To be noted: partially purified PKA from swine brain; histone H1 substrate; 10 μM ATP; 2 μM cyclic AMP; pH 7.4; 32° C., 2 minutes; read-out: Test Procedure B: IC50, inhibition of PKA. Here is the method:
B: Inhibition of CAMP-dependent protein kinase (PKA): PKA activity is determined by measuring the transfer of ^32 P-labelled phosphate from ^32 P-γ-ATP (10 μM) tO histone H1 (333 μg/ml) as the substrate. Partially purified PKA from swine brain is used as the enzyme source [DEAE chromatography according to the method of U. Kikkawa et al. (Methods Enzymol. 99, 288, 1983)]. Activation of the PKA is effected by cyclic AMP (2 μM) in Tris-HCl buffer (20 mM, pH 7.4). The test substances are used in dimethyl sulphoxide (DMSO)/buffer in the concentration range 0.001-100 μM. The test is started by the addition of enzyme; after incubation at 32° C. for 2 minutes the reaction is stopped by the addition of 20% trichloroacetic acid (with 1% SDS and 1% sodium pyrophosphate). The precipitated radioactive histone protein is separated from excess ATP by filtration over nitrocellulose membranes and the radioactivity on the filter is measured in a scintillation counter. The inhibitory activity of the test substance is given as the micromolar concentration which is required to reduce the PKA activity by 50% (IC50 [μM]).

Test [4] addresses protein kinase C (PKC). Description: Inhibition of protein kinase C (PKC) (isolated enzyme). The test is classed as biochemical. The conditions noted are these: partially purified PKC from swine brain; histone H1 substrate; 10 μM ATP; pH 7.4; 32° C., 2 minutes; read-out: Test Procedure A: IC50, inhibition of PKC (isolated enzyme). Here is the method:
A: Inhibition of protein kinase C (PKC) (isolated enzyme): Protein kinase C (PKC) activity is determined by measuring the transfer of ^32 P-labelled phosphate from ^32 P-γ-ATP (10 μM)to histone H1 (200 μg/ml) as the substrate. Partially purified PKC from swine brain is used as the enzyme source [DEAE chromatography according to the method of U. Kikkawa et al. (Methods Enzymol. 99, 288, 1983)]. Activation of the PKC is effected by phospholipid vesicle prepared by ultrasound treatment of a mixture of 0.05 ml of phosphatidylserine (10 mg/ml) and 0.005 ml of diolein (10 mg/ml) in 5 ml of Tris-HCl buffer (20 mM, pH 7.4). The test substances are used in dimethyl sulphoxide (DMSO)/buffer in the concentration range 0.001-100 μM. The test is started by the addition of enzyme; after incubation at 32° C. for 2 minutes the reaction is stopped by the addition of 20% trichloroacetic acid (with 1% SDS and 1% sodium pyrophosphate). The precipitated radioactive histone protein is separated from excess ATP by filtration over nitrocellulose membranes and the radioactivity on the filter is measured in a scintillation counter. The inhibitory activity of the test substance is given as the micromolar concentration which is required to reduce the PKC activity by 50% (IC50 [μM]).

Test [5] deals with protein kinase C (PKC). The experiment in a line: Inhibition of protein kinase C (PKC) (in cells), MARCKS phosphorylation in 3T3 fibroblasts. The format is cell-based. The conditions noted are these: Fibroblast, TPA 100 nM, phosphorylation of 80 kD MARCKS protein, 37° C., read-out: Test Procedure C: IC50, inhibition of PKC in cells. The procedure:
C: Inhibition of protein kinase C (PKC) (in cells): The intracellular protein kinase C (PKC) activity is determined in 3T3 fibroblasts by measuring the phosphorylation of a PKC-specific substrate, namely 80 kD MARCKS protein (myristoylated alanine-rich C-kinase substrate). The endogenous ATP is firstly labelled by incubating the cells at 37° C. with 80-200 μCi/ml of inorganic ^32 P-labelled phosphate. Then, the activation of the PKC is effected by phorbol ester (tetradecanoyl-phorbol 13-acetate (TPA); 100 nM). The test substances are used 15 minutes prior to TPA in dimethyl sulphoxide (DMSO)/buffer in the concentration range 0.1-100 μM. After incubation at 37° C. for 15 minutes the reaction is stopped by removing the medium and the cells are lysed by the addition of 1% Triton X-100 in phosphate buffer. The cell extract is subjected to a heat treatment (20 minutes at 90° C.) and subsequently centrifuged, whereby the MARCKS protein remains dissolved in the supernatant. This is then separated by discontinuous, one-dimensional SDS gel electrophoresis and the radioactivity in the 80 kD protein band is measured by a phosphoimager.

Test [6] concerns HaCaT-cells. Description: Inhibition of keratinocyte proliferation a) HaCaT-cells. To be noted: Homo sapiens, 48 hours, [3H]thymidine incorporation, read-out: Test Procedure E a: IC50, inhibition of keratinocyte proliferation. The test is classed as cell-based. Here is the method: as §1, with “proliferation: a) HaCaT-cells (immortalised human cells line):” for “proliferation:”, “[μM]).” for “[μM]). b) Primary keratinocytes: Keratinocytes, isolated from human foreskin, are used in the primary culture up to passage 7. The culture and test conditions are identical with those of the HaCaT-cells with the exception of the use of 10000 cells per well.”

`O=C(N[C@@H]1CNCCC[C@H]1OC(=O)c1ccc(C(=O)c2cc3ccccc3cc2O)cc1)c1ccc(O)cc1` [Example 60, 4-(3-Hydroxy-naphthalen-2-ylcarbonyl)-benzoic acid (3R,4R)-3-(4-hydroxy-benzoylamino)-azepan-4-yl ester hydrochloride (1:1)]: the IC50 in test [1] was 2000 to 5000 nM; in test [2], 300 to 6000 nM; in test [3], 9 nM; in test [4] it was 1200 nM; in test [5], 2700 nM; in test [6] it was 300 to 500 nM.
In the case of `Cc1cc(C(=O)N[C@@H]2CNCCC[C@H]2OC(=O)c2ccc(C(=O)c3c(O)ccc4c3OCCO4)cc2)cc(C)c1O` [Example 41], the IC50 in test [1] was 300 nM; in test [3], 13 nM; in test [4], 40 nM; in test [5], above 1000 nM.
`COc1ccc(O)c(C(=O)c2ccc(C(=O)O[C@@H]3CCCNC[C@H]3NC(=O)c3cc(C)c(O)c(C)c3)cc2)c1F` [Example 20, 4-(2-Fluoro-6-hydroxy-3-methoxy-benzoyl)-benzoic acid (3R,4R)-3-(4-hydroxy-3,5-dimethyl-benzoylamino)-azepan-4-yl ester hydrochloride (1:1)]: the IC50 was 100 to 6000 nM in test [1], 340 nM in test [5] and 3000 to 10000 nM in test [6].
`Cc1cc(C(=O)N[C@@H]2CNCCC[C@H]2OC(=O)c2ccc(C(=O)c3c(O)ccc(F)c3F)cc2)cc(C)c1O` [Example 25, 4-(2,3-Difluoro-6-hydroxy-benzoyl)-benzoic acid (3R,4R)3-(4-hydroxy-3,5-dimethyl-benzoylamino)-azepan-4-yl ester hydrochloride (1:1)]: the IC50 turned out to be 1000 nM in test [1], 14 nM in test [3], 40 nM in test [4] and 800 nM in test [5].
Turning to `COc1cc(O)c(C(=O)c2ccc(C(=O)O[C@@H]3CCCNC[C@H]3NC(=O)c3ccc(O)cc3)cc2)c(F)c1` [Example 57, 4-(2-Fluoro-6-hydroxy-4-methoxy-benzoyl)-benzoic acid (3R,4R)-3-(4-hydroxy-benzoylamino)-azepan-4-yl ester hydrochloride (1:1)], the IC50 in test [2] is 600 nM; in test [3], 5 nM; in test [4], 867 nM; in test [5] it was 2000 nM; in test [6], 300 to 600 nM.
